How the values were obtained:
Assay type in all cases: biochemical
AKT2 = AKT2 (Homo sapiens, UniProt P31751); test: Kinase selectivity, Table 5: AKT2; conditions: read-out: selectivity data (inhibition), AKT2
BMX = BMX (Homo sapiens, UniProt P51813); test: Kinase selectivity, Table 5: BMX; conditions: read-out: selectivity data (inhibition), BMX
BTK = BTK (Homo sapiens, UniProt Q06187); test: Kinase selectivity, Table 5: BTK; conditions: read-out: selectivity data (inhibition), BTK
c-Raf = c-Raf (Homo sapiens, UniProt P04049); test: Kinase selectivity, Table 5: c-Raf; conditions: read-out: selectivity data (inhibition), c-Raf
c-TAK1 = c-TAK1 (Homo sapiens, UniProt P27448); test: Kinase selectivity, Table 5: c-TAK1; conditions: read-out: selectivity data (inhibition), c-TAK1
DYRK1α = DYRK1α (Homo sapiens, UniProt Q13627); test: Kinase selectivity, Table 5: DYRK1α; conditions: read-out: selectivity data (inhibition), DYRK1α
Erk1 = Erk1 (Homo sapiens, UniProt P27361); test: Kinase selectivity, Table 5: Erk1; conditions: read-out: selectivity data (inhibition), Erk1
Erk2 = Erk2 (Homo sapiens, UniProt P28482); test: Kinase selectivity, Table 5: Erk2; conditions: read-out: selectivity data (inhibition), Erk2
FGFR1 = FGFR1 (Homo sapiens, UniProt P11362); test: Kinase selectivity, Table 5: FGFR1; conditions: read-out: selectivity data (inhibition), FGFR1
FLT3 = FLT3 (Homo sapiens, UniProt P36888); test: Kinase selectivity, Table 5: FLT3; conditions: read-out: selectivity data (inhibition), FLT3
FLT3(D835Y) = FLT3(D835Y) (Homo sapiens, UniProt P36888, D835Y); test: Kinase selectivity, Table 5: FLT3(D835Y); conditions: read-out: selectivity data (inhibition), FLT3(D835Y)
FYN = FYN (Homo sapiens, UniProt P06241); test: Kinase selectivity, Table 5: FYN; conditions: read-out: selectivity data (inhibition), FYN
HGK = HGK (Homo sapiens, UniProt O95819); test: Kinase selectivity, Table 5: HGK; conditions: read-out: selectivity data (inhibition), HGK
IGF1R = IGF1R (Homo sapiens, UniProt P08069); test: Kinase selectivity, Table 5: IGF1R; conditions: read-out: selectivity data (inhibition), IGF1R
Ikkβ = Ikkβ (Homo sapiens, UniProt O14920); test: Kinase selectivity, Table 5: Ikkβ; conditions: read-out: selectivity data (inhibition), Ikkβ
INSR = INSR (Homo sapiens, UniProt P06213); test: Kinase selectivity, Table 5: INSR; conditions: read-out: selectivity data (inhibition), INSR
JAK2 = JAK2 (Homo sapiens, UniProt O60674); test: Kinase selectivity, Table 5: JAK2; conditions: read-out: selectivity data (inhibition), JAK2
JNK2 = JNK2 (Homo sapiens, UniProt P45984); test: Kinase selectivity, Table 5: JNK2; conditions: read-out: selectivity data (inhibition), JNK2
LCK = LCK (Homo sapiens, UniProt P06239); test: Kinase selectivity, Table 5: LCK; conditions: read-out: selectivity data (inhibition), LCK
LYN = LYN (Homo sapiens, UniProt P07948); test: Kinase selectivity, Table 5: LYN; conditions: read-out: selectivity data (inhibition), LYN
MAPKAPK2 = MAPKAPK2 (Homo sapiens, UniProt P49137); test: Kinase selectivity, Table 5: MAPKAPK2; conditions: read-out: selectivity data (inhibition), MAPKAPK2
MET = MET (Homo sapiens, UniProt P08581); test: Kinase selectivity, Table 5: MET; conditions: read-out: selectivity data (inhibition), MET
MSK1 = MSK1 (Homo sapiens, UniProt O75582); test: Kinase selectivity, Table 5: MSK1; conditions: read-out: selectivity data (inhibition), MSK1
p38α = p38α (Homo sapiens, UniProt Q16539); test: Kinase selectivity, Table 5: p38α; conditions: read-out: selectivity data (inhibition), p38α
PDGFRα = PDGFRα (Homo sapiens, UniProt P16234); test: Kinase selectivity, Table 5: PDGFRα; conditions: read-out: selectivity data (inhibition), PDGFRα
PDK1 = PDK1 (Homo sapiens, UniProt O15530); test: Kinase selectivity, Table 5: PDK1; conditions: read-out: selectivity data (inhibition), PDK1
PIM1 = PIM1 (Homo sapiens, UniProt P11309); test: Kinase selectivity, Table 5: PIM1; conditions: read-out: selectivity data (inhibition), PIM1
PKCβ2 = PKCβ2 (Homo sapiens, UniProt P05771); test: Kinase selectivity, Table 5: PKCβ2; conditions: read-out: selectivity data (inhibition), PKCβ2
PKCζ = PKCζ (Homo sapiens, UniProt Q05513); test: Kinase selectivity, Table 5: PKCζ; conditions: read-out: selectivity data (inhibition), PKCζ
PLK1 = PLK1 (Homo sapiens, UniProt P53350); test: Kinase selectivity, Table 5: PLK1; conditions: read-out: selectivity data (inhibition), PLK1
PRAK = PRAK (Homo sapiens, UniProt Q8IW41); test: Kinase selectivity, Table 5: PRAK; conditions: read-out: selectivity data (inhibition), PRAK
ROCK2 = ROCK2 (Homo sapiens, UniProt O75116); test: Kinase selectivity, Table 5: ROCK2; conditions: read-out: selectivity data (inhibition), ROCK2
SGK1 = SGK1 (Homo sapiens, UniProt O00141); test: Kinase selectivity, Table 5: SGK1; conditions: read-out: selectivity data (inhibition), SGK1
SYK = SYK (Homo sapiens, UniProt P43405); test: Kinase selectivity, Table 5: SYK; conditions: read-out: selectivity data (inhibition), SYK

Sequence of Erk1 (P27361 whole entry, species assumed): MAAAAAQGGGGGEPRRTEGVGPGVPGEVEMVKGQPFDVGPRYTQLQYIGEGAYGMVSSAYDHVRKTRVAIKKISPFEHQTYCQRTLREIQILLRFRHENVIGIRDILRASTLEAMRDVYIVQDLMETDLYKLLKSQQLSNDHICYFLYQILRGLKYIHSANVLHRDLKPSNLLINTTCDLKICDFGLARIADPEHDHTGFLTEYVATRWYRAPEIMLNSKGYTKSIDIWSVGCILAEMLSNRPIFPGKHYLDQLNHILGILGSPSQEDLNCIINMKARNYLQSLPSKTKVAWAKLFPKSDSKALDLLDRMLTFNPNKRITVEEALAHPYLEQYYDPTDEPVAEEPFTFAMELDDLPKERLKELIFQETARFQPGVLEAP
Sequence of LCK (P06239 whole entry, species assumed): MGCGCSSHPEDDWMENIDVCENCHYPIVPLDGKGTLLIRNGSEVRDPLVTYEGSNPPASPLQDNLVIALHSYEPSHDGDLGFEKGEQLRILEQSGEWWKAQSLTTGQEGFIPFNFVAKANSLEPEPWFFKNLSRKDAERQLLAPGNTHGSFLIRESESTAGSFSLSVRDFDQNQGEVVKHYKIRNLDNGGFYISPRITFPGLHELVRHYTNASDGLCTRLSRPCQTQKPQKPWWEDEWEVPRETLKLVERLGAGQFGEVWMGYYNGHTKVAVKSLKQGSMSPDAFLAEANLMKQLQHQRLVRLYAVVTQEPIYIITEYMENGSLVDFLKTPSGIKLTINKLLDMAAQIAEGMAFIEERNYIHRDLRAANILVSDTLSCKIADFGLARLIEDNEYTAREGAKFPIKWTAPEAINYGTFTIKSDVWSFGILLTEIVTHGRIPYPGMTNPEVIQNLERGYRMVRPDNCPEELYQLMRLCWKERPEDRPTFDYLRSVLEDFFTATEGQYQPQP
Sequence of MSK1 (O75582 whole entry, species assumed): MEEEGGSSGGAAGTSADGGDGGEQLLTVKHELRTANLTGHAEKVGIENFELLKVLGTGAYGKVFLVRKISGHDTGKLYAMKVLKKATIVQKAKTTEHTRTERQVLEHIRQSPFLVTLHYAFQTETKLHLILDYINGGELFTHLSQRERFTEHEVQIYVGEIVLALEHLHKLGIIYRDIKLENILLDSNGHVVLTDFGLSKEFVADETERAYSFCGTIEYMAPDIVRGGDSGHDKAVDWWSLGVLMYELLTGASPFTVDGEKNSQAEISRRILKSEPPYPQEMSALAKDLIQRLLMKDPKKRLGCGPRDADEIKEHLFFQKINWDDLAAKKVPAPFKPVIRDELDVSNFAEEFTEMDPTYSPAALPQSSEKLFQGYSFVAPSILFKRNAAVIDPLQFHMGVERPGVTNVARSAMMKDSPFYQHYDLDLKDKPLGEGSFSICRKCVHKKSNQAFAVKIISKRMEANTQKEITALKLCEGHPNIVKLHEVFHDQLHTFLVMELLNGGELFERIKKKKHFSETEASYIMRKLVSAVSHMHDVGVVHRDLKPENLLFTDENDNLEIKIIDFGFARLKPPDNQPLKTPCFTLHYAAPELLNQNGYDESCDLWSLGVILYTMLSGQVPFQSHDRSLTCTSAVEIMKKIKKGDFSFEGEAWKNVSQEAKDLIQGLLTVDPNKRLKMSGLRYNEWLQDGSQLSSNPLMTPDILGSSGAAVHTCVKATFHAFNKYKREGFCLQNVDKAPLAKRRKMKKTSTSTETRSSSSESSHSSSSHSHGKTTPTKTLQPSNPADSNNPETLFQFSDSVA
Sequence of JAK2 (O60674 whole entry, species assumed): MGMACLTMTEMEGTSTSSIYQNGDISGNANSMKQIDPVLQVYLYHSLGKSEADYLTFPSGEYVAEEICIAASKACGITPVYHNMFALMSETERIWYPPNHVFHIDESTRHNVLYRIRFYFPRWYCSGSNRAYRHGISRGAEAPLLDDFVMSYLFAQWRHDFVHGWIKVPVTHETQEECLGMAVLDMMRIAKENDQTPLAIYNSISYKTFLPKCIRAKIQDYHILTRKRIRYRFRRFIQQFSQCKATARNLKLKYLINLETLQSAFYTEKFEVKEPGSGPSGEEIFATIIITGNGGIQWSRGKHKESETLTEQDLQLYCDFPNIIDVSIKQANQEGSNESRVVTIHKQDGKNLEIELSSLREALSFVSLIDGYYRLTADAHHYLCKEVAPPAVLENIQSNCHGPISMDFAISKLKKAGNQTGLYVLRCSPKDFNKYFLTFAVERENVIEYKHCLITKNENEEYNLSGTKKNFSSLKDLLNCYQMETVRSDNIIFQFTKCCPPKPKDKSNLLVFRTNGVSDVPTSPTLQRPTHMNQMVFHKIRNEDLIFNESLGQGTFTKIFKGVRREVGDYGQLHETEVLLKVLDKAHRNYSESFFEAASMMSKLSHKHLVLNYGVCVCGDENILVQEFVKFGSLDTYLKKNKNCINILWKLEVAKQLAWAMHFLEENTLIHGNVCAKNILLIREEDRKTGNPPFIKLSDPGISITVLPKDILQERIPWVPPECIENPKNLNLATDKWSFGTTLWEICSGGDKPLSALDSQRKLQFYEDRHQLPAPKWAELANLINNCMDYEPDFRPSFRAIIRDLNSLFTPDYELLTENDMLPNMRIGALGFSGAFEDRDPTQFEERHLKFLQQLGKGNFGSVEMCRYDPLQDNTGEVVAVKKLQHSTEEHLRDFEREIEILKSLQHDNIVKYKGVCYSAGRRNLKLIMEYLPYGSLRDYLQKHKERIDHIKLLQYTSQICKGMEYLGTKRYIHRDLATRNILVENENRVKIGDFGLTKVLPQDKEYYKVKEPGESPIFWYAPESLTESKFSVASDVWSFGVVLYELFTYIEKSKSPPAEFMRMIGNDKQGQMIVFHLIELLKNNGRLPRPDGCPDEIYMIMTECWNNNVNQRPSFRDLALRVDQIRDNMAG
Sequence of PDK1 (O15530 whole entry): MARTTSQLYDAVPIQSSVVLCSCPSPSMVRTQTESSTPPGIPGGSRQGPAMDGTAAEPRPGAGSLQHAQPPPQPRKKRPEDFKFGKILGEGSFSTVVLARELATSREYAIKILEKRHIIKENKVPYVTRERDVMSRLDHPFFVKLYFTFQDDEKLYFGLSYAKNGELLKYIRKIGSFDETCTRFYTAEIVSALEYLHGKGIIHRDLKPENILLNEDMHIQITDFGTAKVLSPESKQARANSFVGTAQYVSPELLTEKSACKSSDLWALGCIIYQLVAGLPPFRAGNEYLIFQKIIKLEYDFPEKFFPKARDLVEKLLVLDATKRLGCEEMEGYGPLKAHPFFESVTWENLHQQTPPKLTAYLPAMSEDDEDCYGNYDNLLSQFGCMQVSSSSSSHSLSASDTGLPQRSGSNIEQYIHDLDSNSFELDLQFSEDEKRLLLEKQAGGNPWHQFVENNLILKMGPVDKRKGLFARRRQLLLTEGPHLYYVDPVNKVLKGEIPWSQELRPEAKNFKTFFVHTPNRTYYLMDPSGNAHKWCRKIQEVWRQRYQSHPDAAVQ
Sequence of FYN (P06241 whole entry, species assumed): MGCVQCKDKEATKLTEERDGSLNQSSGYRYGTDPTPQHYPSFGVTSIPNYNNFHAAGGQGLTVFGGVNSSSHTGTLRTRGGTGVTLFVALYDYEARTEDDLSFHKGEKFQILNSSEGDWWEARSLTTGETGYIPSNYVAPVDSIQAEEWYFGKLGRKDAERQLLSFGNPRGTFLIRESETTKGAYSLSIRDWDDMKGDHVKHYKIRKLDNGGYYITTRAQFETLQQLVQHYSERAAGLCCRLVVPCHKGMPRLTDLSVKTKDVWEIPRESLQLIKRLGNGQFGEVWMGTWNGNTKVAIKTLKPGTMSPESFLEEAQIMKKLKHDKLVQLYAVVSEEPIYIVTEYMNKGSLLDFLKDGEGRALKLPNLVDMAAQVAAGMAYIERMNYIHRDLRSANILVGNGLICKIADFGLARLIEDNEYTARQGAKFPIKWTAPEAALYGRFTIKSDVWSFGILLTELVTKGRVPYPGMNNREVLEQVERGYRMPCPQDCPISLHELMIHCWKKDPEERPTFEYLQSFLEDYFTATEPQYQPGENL
Sequence of PLK1 (P53350 whole entry, species assumed): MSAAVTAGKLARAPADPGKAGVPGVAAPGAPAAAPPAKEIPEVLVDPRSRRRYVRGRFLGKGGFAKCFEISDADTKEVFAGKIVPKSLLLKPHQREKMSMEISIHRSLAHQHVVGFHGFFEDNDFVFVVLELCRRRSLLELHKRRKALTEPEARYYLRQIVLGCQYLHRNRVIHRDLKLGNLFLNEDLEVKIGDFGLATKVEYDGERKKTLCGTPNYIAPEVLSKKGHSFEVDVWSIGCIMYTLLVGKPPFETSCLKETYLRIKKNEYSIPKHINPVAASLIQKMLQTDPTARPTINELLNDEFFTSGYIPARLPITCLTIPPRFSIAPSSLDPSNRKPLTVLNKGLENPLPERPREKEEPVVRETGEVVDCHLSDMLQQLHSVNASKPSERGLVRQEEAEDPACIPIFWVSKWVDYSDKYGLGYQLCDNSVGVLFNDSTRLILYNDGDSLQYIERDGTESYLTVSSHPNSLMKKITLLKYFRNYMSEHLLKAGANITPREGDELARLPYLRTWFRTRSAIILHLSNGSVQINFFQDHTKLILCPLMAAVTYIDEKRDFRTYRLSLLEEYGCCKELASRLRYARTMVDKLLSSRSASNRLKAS
Sequence of AKT2 (P31751 whole entry, species assumed): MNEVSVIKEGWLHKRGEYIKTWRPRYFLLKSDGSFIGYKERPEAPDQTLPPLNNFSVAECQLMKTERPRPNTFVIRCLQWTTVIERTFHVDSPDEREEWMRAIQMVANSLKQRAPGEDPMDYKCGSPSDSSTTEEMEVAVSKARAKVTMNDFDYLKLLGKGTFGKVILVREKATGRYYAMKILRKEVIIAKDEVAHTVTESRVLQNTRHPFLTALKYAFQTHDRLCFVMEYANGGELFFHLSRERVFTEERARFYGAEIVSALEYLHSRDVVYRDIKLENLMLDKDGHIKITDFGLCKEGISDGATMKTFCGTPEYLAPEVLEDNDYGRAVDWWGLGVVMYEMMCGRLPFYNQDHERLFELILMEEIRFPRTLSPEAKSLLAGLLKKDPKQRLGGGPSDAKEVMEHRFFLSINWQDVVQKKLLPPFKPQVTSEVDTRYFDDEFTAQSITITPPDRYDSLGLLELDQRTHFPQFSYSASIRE

## CC(C)c1ccc(C=C2SC(=O)NC2=O)cc1 [5-(4-iso-propylbenzylidene)thiazolidine-2,4-dione]
AKT2
  inhibition at 5 µM: -1%
BMX
  inhibition at 5 µM: 10%
BTK
  inhibition at 5 µM: 7%
c-Raf
  inhibition at 5 µM: -1%
c-TAK1
  inhibition at 5 µM: 0%
DYRK1α
  inhibition at 5 µM: 68%
Erk1
  inhibition at 5 µM: 1%
Erk2
  inhibition at 5 µM: -1%
FGFR1
  inhibition at 5 µM: 1%
FLT3
  inhibition at 5 µM: 1%
FLT3(D835Y)
  inhibition at 5 µM: 9%
FYN
  inhibition at 5 µM: 0%
HGK
  inhibition at 5 µM: 9%
IGF1R
  inhibition at 5 µM: -1%
Ikkβ
  inhibition at 5 µM: 10%
INSR
  inhibition at 5 µM: 4%
JAK2
  inhibition at 5 µM: 18%
JNK2
  inhibition at 5 µM: 14%
LCK
  inhibition at 5 µM: 3%
LYN
  inhibition at 5 µM: 8%
MAPKAPK2
  inhibition at 5 µM: 5%
MET
  inhibition at 5 µM: -6%
MSK1
  inhibition at 5 µM: -1%
p38α
  inhibition at 5 µM: 0%
PDGFRα
  inhibition at 5 µM: 6%
PDK1
  inhibition at 5 µM: 1%
PIM1
  inhibition at 5 µM: 36%
PKCβ2
  inhibition at 5 µM: -1%
PKCζ
  inhibition at 5 µM: 3%
PLK1
  inhibition at 5 µM: 9%
PRAK
  inhibition at 5 µM: 4%
ROCK2
  inhibition at 5 µM: 5%
SGK1
  inhibition at 5 µM: 5%
SYK
  inhibition at 5 µM: -3%

From US20110263664A1, “Inhibitors of PIM-1 Protein Kinases, Compositions and Methods for Treating Prostate Cancer” (MUSC FOUNDATION FOR RESEARCH DEVELOPMENT, priority 2007, published 2011)
